Data: US8802700B2 (Vertex Pharmaceuticals Incorporated, priority 2010, dated 2014)

The compounds below were run against T1, ΔF508-CFTR (Homo sapiens, UniProt P13569, DEL508-508) (assay: Membrane potential optical assay (FRET voltage-sensor dyes, VIPR), identification of potentiator compounds). Conditions: Table 3; assay not given.
T1 construct: expressed in transfected cells
Type: cell-based
In short: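 Potentiator screen measured membrane potential via FRET between CC2-DMPE donor and DiSBAC2(3), read on VIPR II. Compound went in with the first addition of chloride-free gluconate bath; cells were ΔF508-CFTR-expressing NIH3T3 mouse fibroblasts, temperature-corrected at 27 °C for 24 h.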

T1 sequence (P13569 with tags, fused parts or gaps DEL508-508): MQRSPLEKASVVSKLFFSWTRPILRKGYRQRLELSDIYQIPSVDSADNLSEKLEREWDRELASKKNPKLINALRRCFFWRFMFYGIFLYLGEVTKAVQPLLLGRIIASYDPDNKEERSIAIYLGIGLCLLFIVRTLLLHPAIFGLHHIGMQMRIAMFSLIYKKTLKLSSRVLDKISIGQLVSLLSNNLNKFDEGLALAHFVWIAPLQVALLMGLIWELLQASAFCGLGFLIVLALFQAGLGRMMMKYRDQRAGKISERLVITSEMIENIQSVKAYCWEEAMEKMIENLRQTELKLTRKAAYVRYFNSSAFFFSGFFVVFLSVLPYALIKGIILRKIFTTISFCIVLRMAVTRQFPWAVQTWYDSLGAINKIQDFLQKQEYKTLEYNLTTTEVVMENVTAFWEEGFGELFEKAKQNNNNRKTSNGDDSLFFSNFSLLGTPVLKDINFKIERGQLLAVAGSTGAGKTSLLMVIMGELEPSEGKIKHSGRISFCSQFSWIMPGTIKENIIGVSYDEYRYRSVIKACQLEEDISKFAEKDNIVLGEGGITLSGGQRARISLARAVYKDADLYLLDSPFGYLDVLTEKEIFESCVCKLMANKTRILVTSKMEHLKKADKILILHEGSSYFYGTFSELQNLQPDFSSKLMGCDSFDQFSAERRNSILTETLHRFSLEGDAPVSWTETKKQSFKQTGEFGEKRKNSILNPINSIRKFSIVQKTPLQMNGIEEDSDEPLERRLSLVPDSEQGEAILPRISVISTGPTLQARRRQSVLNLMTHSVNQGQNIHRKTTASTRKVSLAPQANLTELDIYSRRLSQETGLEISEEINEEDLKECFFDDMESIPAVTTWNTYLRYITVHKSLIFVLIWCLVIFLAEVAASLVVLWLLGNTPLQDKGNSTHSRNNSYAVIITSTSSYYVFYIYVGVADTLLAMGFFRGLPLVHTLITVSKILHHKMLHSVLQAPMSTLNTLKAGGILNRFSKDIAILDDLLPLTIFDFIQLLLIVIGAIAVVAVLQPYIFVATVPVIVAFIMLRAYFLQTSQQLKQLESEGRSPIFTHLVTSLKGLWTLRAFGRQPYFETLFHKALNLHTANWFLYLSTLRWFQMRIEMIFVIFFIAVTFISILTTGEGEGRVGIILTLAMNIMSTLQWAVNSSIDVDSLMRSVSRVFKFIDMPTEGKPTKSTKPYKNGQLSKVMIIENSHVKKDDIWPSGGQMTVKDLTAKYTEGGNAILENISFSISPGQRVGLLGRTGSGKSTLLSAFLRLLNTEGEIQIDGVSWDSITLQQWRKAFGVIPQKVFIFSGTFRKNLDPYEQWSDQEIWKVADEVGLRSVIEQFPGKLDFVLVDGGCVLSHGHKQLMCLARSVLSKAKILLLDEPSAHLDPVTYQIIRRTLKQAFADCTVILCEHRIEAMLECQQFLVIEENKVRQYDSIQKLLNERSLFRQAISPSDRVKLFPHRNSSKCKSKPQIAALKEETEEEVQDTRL

`CCOC(=O)Nc1ccc(CC)c(NC(=O)c2c[nH]c3ccccc3c2=O)c1` [Compound 472, [4-ethyl-3-[(4-oxo-1H-quinolin-3-yl)carbonylamino]phenyl]aminoformic acid ethyl ester] and `CN(C)c1cc(NC(=O)c2c[nH]c3ccccc3c2=O)ccc1C(C)(C)C` [Compound 485, N-(3-Dimethylamino-4-tert-butyl-phenyl)-4-oxo-1H-quinoline-3-carboxamide] cannot be ordered by EC50: less than 10 µM for the first, less than 10 µM for the second.

`CC(C)(C)c1c[nH]c2cc(NC(=O)c3c[nH]c4ccccc4c3=O)c(C(F)(F)F)cc12` [Compound 508, 4-oxo-N-[3-tert-butyl-5-(trifluoromethyl)-1H-indol-6-yl]-1H-quinoline-3-carboxamide] gave an EC50 of less than 10 µM.

Same assay, conditions: Table 3; assay not given; read-out: % Activity (% Efficacy, relative efficacy)

`CCCc1ccc(NC(=O)OC)cc1NC(=O)c1c[nH]c2ccccc2c1=O` [Compound 471, [3-[(4-oxo-1H-quinolin-3-yl)carbonylamino]-4-propyl-phenyl]aminoformic acid methyl ester] and `CCOC(=O)Nc1ccc(CC)c(NC(=O)c2c[nH]c3ccccc3c2=O)c1` [Compound 472, [4-ethyl-3-[(4-oxo-1H-quinolin-3-yl)carbonylamino]phenyl]aminoformic acid ethyl ester] fall in the same range of Emax: 25 to 100% for the first, 25 to 100% for the second.

`CC(C)n1cc(C(=O)Nc2ccccc2C(C)(C)C)c(=O)c2ccccc21` [Compound 473, 1-isopropyl-4-oxo-N-(2-tert-butylphenyl)-1H-quinoline-3-carboxamide] and `CNc1cc(NC(=O)c2c[nH]c3ccccc3c2=O)ccc1C(C)(C)C` [Compound 484, N-(3-methylamino-4-tert-butyl-phenyl)-4-oxo-1H-quinoline-3-carboxamide] fall in the same range of Emax: 25 to 100% for the first, 25 to 100% for the second.

First: Cn1c(=O)oc2ccc(NC(=O)c3c[nH]c4ccccc4c3=O)cc21 [Compound 474, N-(3-methyl-2-oxo-3H-benzooxazol-5-yl)-4-oxo-1H-quinoline-3-carboxamide]
Second: O=C(Nc1ccc(C(F)(F)F)c(O)c1)c1c[nH]c2ccccc2c1=O [Compound 506, N-[3-hydroxy-4-(trifluoromethyl)phenyl]-4-oxo-1H-quinoline-3-carboxamide]
The Emax of the first is lower: less than 25% for the first, 25 to 100% for the second.

First: CC(C)(C)c1cc(C#N)c(NC(=O)c2c[nH]c3ccccc3c2=O)cc1O [Compound 476, N-(4-tert-Butyl-2-cyano-5-hydroxyphenyl)-1,4-dihydro-4-oxoquinoline-3-carboxamide]
Second: CC(C)(C)c1cc(C(C)(C)C)c(NC(=O)c2c[nH]c3c(C#N)cccc3c2=O)cc1O [Compound 505, 8-cyano-N-(5-hydroxy-2,4-ditert-butyl-phenyl)-4-oxo-1H-quinoline-3-carboxamide]
The Emax of the first is higher: 25 to 100% for the first, less than 25% for the second.

Compared with `O=C(Nc1ccc(F)cn1)c1c[nH]c2ccccc2c1=O` [Compound 477, N-(5-fluoro-2-pyridyl)-4-oxo-1H-quinoline-3-carboxamide], `O=C(Nc1ccc2ccccc2c1)c1c[nH]c2ccccc2c1=O` [Compound 481, N-(2-naphthyl)-4-oxo-1H-quinoline-3-carboxamide] is higher in Emax: less than 25% for the first, 25 to 100% for the second.

`CC(C)(C)c1c[nH]c2cc(NC(=O)c3c[nH]c4ccccc4c3=O)ccc12` [Compound 478, 4-oxo-N-(3-tert-butyl-1H-indol-6-yl)-1H-quinoline-3-carboxamide] and `CN(C)c1cc(NC(=O)c2c[nH]c3ccccc3c2=O)ccc1C(C)(C)C` [Compound 485, N-(3-Dimethylamino-4-tert-butyl-phenyl)-4-oxo-1H-quinoline-3-carboxamide] fall in the same range of Emax: 25 to 100% for the first, 25 to 100% for the second.

`COc1cccc2[nH]cc(C(=O)Nc3ccc4cc[nH]c4c3)c(=O)c12` [Compound 479, N-(1H-indol-6-yl)-5-methoxy-4-oxo-1H-quinoline-3-carboxamide] and `CC(C)(C)c1cc2cc[nH]c2cc1NC(=O)c1c[nH]c2cccc(O)c2c1=O` [Compound 500, 5-hydroxy-4-oxo-N-(5-tert-butyl-1H-indol-6-yl)-1H-quinoline-3-carboxamide] fall in the same range of Emax: 25 to 100% for the first, 25 to 100% for the second.

Compared with `CCn1cc(C(=O)Nc2ccccc2)c(=O)c2cc(OC)ccc21` [Compound 480, 1-ethyl-6-methoxy-4-oxo-N-phenyl-1H-quinoline-3-carboxamide], `CCOC(=O)NC1CCCc2ccc(NC(=O)c3c[nH]c4ccccc4c3=O)cc21` (stereo not drawn) [Compound 482, [7-[(4-Oxo-1H-quinolin-3-yl)carbonylamino]tetralin-1-yl]aminoformic acid ethyl ester] is higher in Emax: less than 25% for the first, 25 to 100% for the second.

`CC1(c2cc(F)c(NC(=O)c3cnc4ccccc4c3O)cc2O)CCCCCC1` [Compound 483, N-[2-fluoro-5-hydroxy-4-(1-methylcycloheptyl)-phenyl]-4-hydroxy-quinoline-3-carboxamide] and `Cc1cccc2[nH]cc(C(=O)Nc3cc(O)c(C4(C)CCCCC4)cc3F)c(=O)c12` [Compound 498, N-[2-fluoro-5-hydroxy-4-(1-methylcyclohexyl)-phenyl]-5-methyl-4-oxo-1H-quinoline-3-carboxamide] fall in the same range of Emax: 25 to 100% for the first, 25 to 100% for the second.

`CC(C)(C)c1cc(F)c(NC(=O)c2c[nH]c3cc(F)c(F)cc3c2=O)cc1O` [Compound 486, 6,7-difluoro-N-(2-fluoro-5-hydroxy-4-tert-butyl-phenyl)-4-oxo-1H-quinoline-3-carboxamide] and `CC(C)(C)c1cc(C(F)(F)F)c(NC(=O)c2c[nH]c3ccc(F)cc3c2=O)cc1O` [Compound 509, 6-fluoro-N-[5-hydroxy-4-tert-butyl-2-(trifluoromethyl)phenyl]-4-oxo-1H-quinoline-3-carboxamide] fall in the same range of Emax: 25 to 100% for the first, 25 to 100% for the second.

`CC(C)(C)c1cc(C(F)(F)F)c(NC(=O)c2c[nH]c3cccc(O)c3c2=O)cc1O` [Compound 487, 5-hydroxy-N-[5-hydroxy-4-tert-butyl-2-(trifluoromethyl)phenyl]-4-oxo-1H-quinoline-3-carboxamide] and `CCc1cc(C(C)(C)C)c(O)cc1NC(=O)c1c[nH]c2cccc(O)c2c1=O` [Compound 507, N-(2-ethyl-5-hydroxy-4-tert-butyl-phenyl)-5-hydroxy-4-oxo-1H-quinoline-3-carboxamide] fall in the same range of Emax: 25 to 100% for the first, 25 to 100% for the second.

`O=C(Nc1cc(N2CCCCC2)cc(C(F)(F)F)c1)c1c[nH]c2ccccc2c1=O` [Compound 488, 4-oxo-N-[3-(1-piperidyl)-5-(trifluoromethyl)phenyl]-1H-quinoline-3-carboxamide] and `CC(C)(C)c1ccc(NC(=O)c2c[nH]c3ccccc3c2=O)cc1N1CCCCC1` [Compound 510, 4-oxo-N-[3-(1-piperidyl)-4-tert-butyl-phenyl]-1H-quinoline-3-carboxamide] fall in the same range of Emax: 25 to 100% for the first, 25 to 100% for the second.

`Cc1ccc2[nH]cc(C(=O)Nc3ccc(N4CCC(C)(C)C4)cc3C(F)(F)F)c(=O)c2c1` [Compound 489, N-[4-(3,3-dimethylpyrrolidin-1-yl)-2-(trifluoromethyl)phenyl]-6-methyl-4-oxo-1H-quinoline-3-carboxamide] and `COc1ccc2[nH]cc(C(=O)Nc3ccc(N4CCC(C)(C)C4)cc3C(F)(F)F)c(=O)c2c1` [Compound 504, N-[4-(3,3-dimethylpyrrolidin-1-yl)-2-(trifluoromethyl)phenyl]-6-methoxy-4-oxo-1H-quinoline-3-carboxamide] fall in the same range of Emax: 25 to 100% for the first, 25 to 100% for the second.

`CC(C)(C)c1ccc(NC(=O)c2c[nH]c3ccc(F)cc3c2=O)cc1O` [Compound 490, 6-fluoro-N-(3-hydroxy-4-tert-butyl-phenyl)-4-oxo-1H-quinoline-3-carboxamide] and `CC(C)(C)c1ccc(NC(=O)c2c[nH]c3cccc(O)c3c2=O)cc1F` [Compound 491, N-(3-fluoro-4-tert-butyl-phenyl)-5-hydroxy-4-oxo-1H-quinoline-3-carboxamide] fall in the same range of Emax: 25 to 100% for the first, 25 to 100% for the second.

First: COC(=O)C1CCCCN1c1ccc(NC(=O)c2c[nH]c3ccccc3c2=O)c(C(F)(F)F)c1 (stereo not drawn) [Compound 492, methyl 1-[4-[(4-oxo-1H-quinolin-3-yl)carbonylamino]-3-(trifluoromethyl)phenyl]piperidine-2-carboxylate]
Second: Cc1ccc2[nH]cc(C(=O)Nc3ccc(N4CCCC4C)cc3C(F)(F)F)c(=O)c2c1 (stereo not drawn) [Compound 503, 6-methyl-N-[4-(2-methylpyrrolidin-1-yl)-2-(trifluoromethyl)phenyl]-4-oxo-1H-quinoline-3-carboxamide]
The Emax of the first is higher: greater than 100% for the first, 25 to 100% for the second.

`CC(CO)(CO)c1ccc(NC(=O)c2c[nH]c3cccc(O)c3c2=O)cc1` [Compound 493, 5-hydroxy-N-[4-[2-hydroxy-1-(hydroxymethyl)-1-methyl-ethyl]phenyl]-4-oxo-1H-quinoline-3-carboxamide] and `COc1cc(NC(=O)c2c[nH]c3cccc(O)c3c2=O)cc(C(F)(F)F)c1` [Compound 502, 5-hydroxy-N-[3-methoxy-5-(trifluoromethyl)phenyl]-4-oxo-1H-quinoline-3-carboxamide] fall in the same range of Emax: 25 to 100% for the first, 25 to 100% for the second.

`O=C(Nc1cc2[nH]ccc2cc1C(F)(F)F)c1c[nH]c2cccc(O)c2c1=O` [Compound 494, 5-hydroxy-4-oxo-N-[5-(trifluoromethyl)-1H-indol-6-yl]-1H-quinoline-3-carboxamide] and `O=C(Nc1cc(O)c(C(F)(F)F)cc1F)c1c[nH]c2ccccc2c1=O` [Compound 501, N-[2-fluoro-5-hydroxy-4-(trifluoromethyl)phenyl]-4-oxo-1H-quinoline-3-carboxamide] fall in the same range of Emax: 25 to 100% for the first, 25 to 100% for the second.

`O=C(Nc1ccc2cc(C(F)(F)F)[nH]c2c1)c1c[nH]c2ccc(F)cc2c1=O` [Compound 495, 6-fluoro-4-oxo-N-[2-(trifluoromethyl)-1H-indol-6-yl]-1H-quinoline-3-carboxamide] and `CC(C)(C)c1c[nH]c2cc(NC(=O)c3c[nH]c4ccccc4c3=O)c(C(F)(F)F)cc12` [Compound 508, 4-oxo-N-[3-tert-butyl-5-(trifluoromethyl)-1H-indol-6-yl]-1H-quinoline-3-carboxamide] fall in the same range of Emax: 25 to 100% for the first, 25 to 100% for the second.

First: COc1ccc2[nH]cc(C(=O)Nc3cc(O)c(C(C)(C)C)cc3C(C)(C)C)c(=O)c2c1 [Compound 496, N-(5-hydroxy-2,4-ditert-butyl-phenyl)-6-methoxy-4-oxo-1H-quinoline-3-carboxamide]
Second: CC(C)c1cc(C(F)(F)F)c(NC(=O)c2c[nH]c3ccccc3c2=O)cc1O [Compound 497, N-[5-hydroxy-4-isopropyl-2-(trifluoromethyl)phenyl]-4-oxo-1H-quinoline-3-carboxamide]
The Emax of the first is lower: 25 to 100% for the first, greater than 100% for the second.

Work on `Cc1ccc2c(=O)c(C(=O)Nc3cc(O)c(C4(C)CCCCC4)cc3F)c[nH]c2c1` [Compound 499, N-[2-fluoro-5-hydroxy-4-(1-methylcyclohexyl)-phenyl]-7-methyl-4-oxo-1H-quinoline-3-carboxamide] yielded an Emax of 25 to 100%.
